In brackets after ≈: the same amount, converted by molar mass. Read-outs that look alike come from different tables or passages of the source.
Legend:
[1] = test system: Limulus Amoebocyte Lysate
murine macrophage cells = assay: nitric oxide production by murine macrophage cells (Griess); assay type: cell-based, C57/BL6 mice; details: for Max concentration: concentration at maximum amplitude; for EC50 conc: concentration corresponding to 50% of maximum amplitude; for Min concentration: lowest concentration inducing a significant response
Excerpt: Six-week old male C57/BL6 mice are killed by CO2 inhalation. The hip, femur, tibia and posterior appendage bones are removed. The bone marrow is extracted from the bone lumen by injecting Dulbecco's Modified Eagle Medium (DH medium) from the end portions which had been excised. The stem cells are washed and resuspended (approximate cell concentration 4000 cells/ml) in DH medium supplemented with 20% equine serum (SH) and 30% L929 cell supernatant. L929 is a murine fibroblast cell line the supernatant fluid of which is rich in growth factor for macrophage cells (M-CSF). The cell suspension is divided into Petri dishes which are incubated for 8 days in an incubator at 37° C. under 8% CO2 and a moisture saturated atmosphere.
After 8 days, the stem cells have differentiated into mature macrophage cells. The macrophage cells are scraped off by rapid cooling, washed and resuspended in DH medium supplemented with 5% foetal calf serum (FCS), amino acids and antibiotics. The cell density is adjusted to 700 000 cells/ml.
Products previously dissolved in DH medium supplemented with 5% FCS, amino acids and antibiotics are serially diluted directly in microtiter plates. The products are tested in triplicates and each microtiter plate comprises a negative control containing plain medium. The final volume in each well is 100 μl.
100 μl of cell suspension are added to diluted solutions of such products and the cells are incubated for 22 hours in an incubator at 37° C., under 8% CO2 and a moisture saturated atmosphere. At the end of the incubation period with the products, 100 μl of supernatant are withdrawn and the nitrite concentration is determined by running a Griess reaction.
100 μl of Griess reagent (5 mg/ml of sulfanilamide+0.5 mg/ml of N-(1-naphtylethylene diamine hydrochloride)) in 2.5% aq. phosphoric acid, are added to each well. The microtiter plates are read with a spectrophotometer at 562 nm wavelength against a reference sample at 690 nm. The nitrite concentration is proportional to nitric oxide content being formed. The nitrite content is determined based on a standard curve.
The results are given as mean value±standard deviation and plotted as a dose versus response curve.
From this dose versus response curve, 3 curve variables are computed:
Max: maximum curve amplitude and corresponding concentration
EC50: concentration corresponding to 50% of maximum amplitude
Min: lowest concentration inducing a significant proliferation corresponding to the blank±3× standard deviation value
Concentration values corresponding to EC50 and Min are determined from line segments joining different points on the curve.
If the curve has no plateau phase but an ascending configuration for the highest concentration being tested, a “>” sign is shown before “Max” and “EC50” values.

[2] = test system: predendritic cells (DC-6); assay: dendritic cell differentiation test: FITC-Dextran take-up; assay type: cell-based, human; details: 10 μg/ml; for Dextran % CD: products redissolved in pyrogen-free water, % of dendritic cells; for Dextran Fluorescence: mean fluorescence value
Method: The ability of products of the invention to induce maturation of predendritic cells into dendritic cells was assessed. The following parameters were measured: FITC-Dextran conjugate take-up and expression of CD83, CD86 surface markers.
Mononucleated cells of peripheral blood are isolated from buffy coats of healthy donors. Purified monocytes by adherence selection are resuspended in RPMI-1640 medium containing 10% of foetal calf serum (FCS), GM-CSF and IL-4 (10 ng/ml) at a density of 1×10^6 cells/ml. Cells are divided into Petri Dishes (10×10^6 cells per dish) and cultured for 6 days with a change to fresh medium after 3 days. Cells thus obtained are called predendritic cells (DC-6). Maturation of predendritic cells into mature dendritic cells is achieved by incubating cells with diluted solutions of the products or LPS (positive control) for 3 more days (see product section below). At day 9 (DC-9), cells are harvested and analyzed for different indicators of dendritic cell maturation: assessment of CD83, CD86 surface marker expression as well as of their ability to take up FITC-Dextran conjugate. All these parameters are analyzed by an EPICS-XL-MCL model FACS (Coulter Immunology, Hialeah, […]).
Expression of surface markers is given as % of mean fluorescence of LPS-activated cells (positive control); FITC-Dextran conjugate take-up rate is calculated based on take-up of cells maintained in basic medium and is expressed in %.
Solutions are incubated at 37° C. for 20 minutes, subjected to vigorous stirring during 3 minutes and then diluted to 100 μg/ml in RPMI-1640 culture medium and used in diluted state at concentrations ranging from 10 μg/ml to 0.03 μg/ml. Reference Product: E. coli lipopolysaccharide (LPS, DIFCO, Detroit, Mich., U.S.A.), as a 5 mg/ml stock solution in PBS. An intermediate 100 μg/ml solution is prepared in RPMI 1640 culture medium. Concentrations of dilute solutions being tested range from 1 μg/ml to 0.03 μg/ml.
In another series of experiments, all acyl dipeptide-like compounds were freeze-dried and directly redissolved into pyrogen-free water. Different products as well as LPS control are tested at a concentration of 10 μg/ml. Results are given as % of dendritic cells and mean fluorescence value for dextran phagocytosis or CD86 surface marker expression.
Immature dendritic cells (DC-6) resulting from monocyte differentiation, through the joint action of GM-CSF and IL-4, are able to incorporate FITC-Dextran conjugate. During the maturation process, cells lose their ability to incorporate the FITC-Dextran conjugate. Assays are conducted upon reaching the DC-9 differentiation stage.

In the case of `CCCCCCCCCCCC(=O)O[C@H](CCCCCCCCCCC)CC(=O)N[C@H](CC(=O)O)C(=O)NCCC[C@H](COC(=O)CCCCCNC(=O)CCC(=O)OC[C@@H]1C=C[C@H](n2cc(C)c(=O)[nH]c2=O)O1)NC(=O)C[C@H](O)CCCCCCCCCCC` [OM-197-MC-AC-Succ-d4T], the “LAL ng of LPS equivalent per mg of product” value (“LAL ng … per mg of product” for short) ([1]; 1 EU = 0.08 ng E. coli 055:B5 LPS) is reported as 0.08 ng of LPS equivalent per mg of product, the “LAL EU/mg of product” value ([1]; acyl-dipeptide-like compounds, diluted 0.1 mg/ml solution) is reported as 1.05 EU/mg of product and the Max concentration (murine macrophage cells) is reported as 12.5 µg/mL. For the same compound, the EC50 conc (murine macrophage cells) was 1.15 µg/mL (≈ 0.893 µM), the Min concentration (murine macrophage cells) was 0.56 µg/mL and the “Dextran % CD” value [2] was 11.6%. For the same compound, the “Dextran Fluorescence” value [2] was 0.5.

With `CCCCCCCCCCCC(=O)O[C@H](CCCCCCCCCCC)CC(=O)N[C@H](CC(=O)N[C@@H](CC(=O)O)C(=O)O)C(=O)NCCC[C@H](COC(=O)CCCCCN)NC(=O)C[C@H](O)CCCCCCCCCCC` [OM-197-Asp-AC, N—[(R)-3-dodecanoyloxytetradecanoyl]-D-aspartic acid, α-N-{(4R)-5-(6-aminohexanoyloxy)-4-[(R)-3-hydroxytetradecanoyl-amino]-pentyl}amide β-N-[(1S)-1,2-dicarboxyethyl]Amide] the “LAL EU/mg of product” value [1] was 2307 EU/mg of product, the “LAL ng … per mg of product” value [1] was 184.6 ng of LPS equivalent per mg of product and the Max concentration (murine macrophage cells) was > 100 µg/mL. The EC50 conc (murine macrophage cells) was > 7.04 µg/mL, the Min concentration (murine macrophage cells) was 2.00 µg/mL and the “Dextran % CD” value [2] was 22.0%. The “Dextran Fluorescence” value [2] was 22.1.

`CCCCCCCCCCCC(=O)O[C@H](CCCCCCCCCCC)CC(=O)N[C@H](CC(=O)O)C(=O)NCCC[C@H](COC(=O)CCCCCO)NC(=O)C[C@H](O)CCCCCCCCCCC` [OM-197-MC-FV7, N—[(R)-3-dodecanoyloxytetradecanoylamino]-D-aspartic acid, α-N-{(4R)-5-hydroxy-4-[(R)-3-hydroxytetradecanoylamino]pentyl}amide 5-O-(6-hydroxyhexanoate)] was tested, and the “LAL EU/mg of product” value [1] was <0.05 EU/mg of product, the “LAL ng … per mg of product” value [1] was <0.004 ng of LPS equivalent per mg of product and the Max concentration (murine macrophage cells) was > 25.6 µg/mL. For the same compound, the EC50 conc (murine macrophage cells) was > 3.70 µg/mL and the Min concentration (murine macrophage cells) was 0.36 µg/mL.

`CCCCCCCCCCC[C@@H](O)CC(=O)N[C@H](CCCNC(=O)[C@@H](CC(=O)O)NC(C)=O)COC(=O)CCCCCN` [OM-197-N′C2-MC-AC, N-acetyl-D-aspartic acid, α-N-{(4R)-5-(6-aminohexanoyloxy)-4-[(R)-3-hydroxytetradecanoylamino]-pentyl}amide] was tested, and the “LAL EU/mg of product” value [1] was <0.5 EU/mg of product, the “LAL ng … per mg of product” value [1] was <0.04 ng of LPS equivalent per mg of product and the Max concentration (murine macrophage cells) was 200 µg/mL.

For `CCCCCCCCCCC[C@@H](O)CC(=O)N[C@H](CCCNC(=O)[C@@H](CC(=O)O)NC(=O)C(CCCCCC)OC(=O)CCCCCCCCC)COC(=O)CCCCCN` (stereo partly drawn) [OM-197-N′(C10-20C8)-MC-AC, N-(2-decanoyloxyoctanoyl)-D-aspartic acid, α-N-{(4R)-5-(6-aminohexanoyloxy)-4-[(R)-3-hydroxytetradecanoylamino]-pentyl}amide], the “LAL EU/mg of product” value [1] was <0.5 EU/mg of product, the “LAL ng … per mg of product” value [1] was <0.04 ng of LPS equivalent per mg of product and the “nitric oxide production” value (murine macrophage cells) was “minor production”. For the same compound, the Max concentration (murine macrophage cells) was > 100 µg/mL, the EC50 conc (murine macrophage cells) was 61.05 µg/mL (≈ 70.2 µM) and the Min concentration (murine macrophage cells) was 54.3 µg/mL.

`CCCCCCCCCCCC(=O)O[C@H](CCCCCCCCCCC)CC(=O)N[C@H](CC(=O)O)C(=O)NCCC[C@H](COC(=O)CCCCCNC(=O)CCC(=O)O)NC(=O)C[C@H](O)CCCCCCCCCCC` [OM-197-MC-AC-Succ, N—[(R)-3-dodecanoyloxytetradecanoyl]-D-aspartic acid, α-N-{(4R)-5-(6-succinylamidohexanoxyloxy)-4[(R)-3-hydroxy-tetradecanoylamino]pentyl}amide] was tested, and the “LAL EU/mg of product” value [1] was <0.05 EU/mg of product, the “LAL ng … per mg of product” value [1] was <0.004 ng of LPS equivalent per mg of product and the Max concentration (murine macrophage cells) was > 16 µg/mL. For the same compound, the EC50 conc (murine macrophage cells) was 0.72 µg/mL (≈ 0.666 µM) and the Min concentration (murine macrophage cells) was 0.28 µg/mL.

With `CCCCCCCCCCCC(=O)O[C@H](CCCCCCCCCCC)CC(=O)N[C@H](CC(=O)O)C(=O)NCCC[C@H](COC(=O)CCCCCN)NC(=O)C[C@H](O)CCCCCCCCCCC` [OM-197-MC-AC, N—[(R)-3-dodecanoyloxytetradecanoyl]-D-aspartic acid, α-N-{(4R)-5-(6-aminohexanoyloxy)-4-[(R)-3-hydroxytetradecanoylamino]pentyl}amide] the Max concentration (murine macrophage cells) was 25 µg/mL, the EC50 conc (murine macrophage cells) was 4.91 µg/mL (≈ 5 µM) and the Min concentration (murine macrophage cells) was 0.91 µg/mL. For the same compound, the “Dextran % CD” value [2] was 68.3% and the “Dextran Fluorescence” value [2] was 5.2.

For `CCCCCCCCCCCC(=O)O[C@H](CCCCCCCCCCC)CC(=O)NC(CCOP(=O)(O)O)C(=O)NCCCC(COC(=O)CCCCCO)NC(=O)C[C@H](O)CCCCCCCCCCC` (stereo partly drawn) [OM-197-FV8, 3-[(R)-3-dodecanoyloxytetradecanoylamino]-4-oxo-5-aza-9-[(R)-3-hydroxytetradecanoylamino]-decan-1,10-diol 1-dihydrogenphosphate 10-(6-hydroxyhexanoate)], the “LAL EU/mg of product” value [1] was 1820 EU/mg of product, the “LAL ng … per mg of product” value [1] was 145.6 ng of LPS equivalent per mg of product and the Max concentration (murine macrophage cells) was 51 µg/mL. The EC50 conc (murine macrophage cells) was 7.89 µg/mL (≈ 7.53 µM) and the Min concentration (murine macrophage cells) was 1.45 µg/mL.

`CCCCCCCCCCCC(=O)O[C@H](CCCCCCCCCCC)CC(=O)N[C@@H](CCOP(=O)(O)O)C(=O)NCCC[C@H](COC(=O)CCCCCO)NC(=O)C[C@H](O)CCCCCCCCCCC` [OM-197-MP-AC (S, R), (3S,9R)-3-[(R)-3-dodecanoyloxytetradecanoylamino]-4-oxo-5-aza-9-[(R)-3-hydroxytetradecanoylamino]-1,10-diol 1-dihydrogenphosphate 10-(6-hydroxyhexanoate)] was tested, and the “LAL EU/mg of product” value [1] was <0.125 EU/mg of product, the “LAL ng … per mg of product” value [1] was <0.01 ng of LPS equivalent per mg of product and the Max concentration (murine macrophage cells) was 40 µg/mL. For the same compound, the EC50 conc (murine macrophage cells) was 3.28 µg/mL (≈ 3.13 µM) and the Min concentration (murine macrophage cells) was 0.59 µg/mL.

In the case of `CCCCCCCCCCCC(=O)O[C@H](CCCCCCCCCCC)CC(=O)N[C@H](CC(=O)O)C(=O)NCCC[C@H](COP(=O)(O)O)NC(=O)C[C@H](O)CCCCCCCCCCC` [OM-197-MC-MP, N—[(R)-3-dodecanoyloxytetradecanoyl]-D-aspartic acid, α-N-{(4R)-5-dihydroxyphosphoryloxy-4-[(R)-3-hydroxytetradecanoyl-amino]pentyl}amide], the “LAL EU/mg of product” value [1] is reported as 210.5 EU/mg of product, the “LAL ng … per mg of product” value [1] is reported as 16.8 ng of LPS equivalent per mg of product and the Max concentration (murine macrophage cells) is reported as 51 µg/mL. For the same compound, the EC50 conc (murine macrophage cells) was 1.18 µg/mL (≈ 1.24 µM) and the Min concentration (murine macrophage cells) was 0.11 µg/mL.

From patent US8173133B2, “Acyl pseudodipeptides which carry a functionalized auxiliary arm” (OM Pharma, priority 1999, dated 2012)
